# From EP0280239A1, “1,4-Dihydropyridine derivatives, production and use thereof” (SANWA KAGAKU KENKYUSHO CO., LTD., priority 1987, dated 1988)
# Key:
# Assay type in all cases: in vivo
# [1] = test system: spontaneously hypertensive rats; experiment: Blood pressure depressing action in spontaneously hypertensive rats; settings: male spontaneously hypertensive rats, oral, 3.0 mg/kg, N=6; for systric pressure of median sacral artery, change at 1 hr (%): 1 hr after administration; for systric pressure of median sacral artery, change at 2 hr (%): 2 hr after administration; for systric pressure of median sacral artery, change at 4 hr (%): 4 hr after administration; for systric pressure of median sacral artery, change at 6 hr (%): 6 hr after administration; for systric pressure of median sacral artery, change at 24 hr (%): 24 hr after administration
# Description: Pharmacological Test Example 2 (Blood pressure depressing action)
# mongrel dogs [2] = experiment: Blood flow increasing action (vertebral and femoral arterial blood flow, blood pressure) in anesthetized dogs; settings: 1µg/kg, i.v., 5 head
# Description: Pharmacological Test Example 1 (Blood flow increasing action)
# An experiment was carried out by anesthetizing adult made and female mongrel dogs (weight; 10 to 20kg) with Nembutal (30mg/kg, i.p.) and artificially respiring (20ml/kg/stroke, 20 strokes/min.) the animals.
# Right vertebral and femoral arteries were exposed and each probe of electro-magnetic flow meter was fitted therein to measure vertebral and femoral arterial blood flows. A cannula was inserted into descending aorta from left femoral artery, in order to measure blood pressure by a pressure transducer connected to an amplifier. Each of test compounds dissolved in 50% ethanol solution (1µg/kg, i.v.) was administered from the cannula into cephlic vein.
# Further, an amount of the compound required to increase the vertebral arterial blood flow by 50% was checked to obtain results shown in following Table 2, wherein the amount is given as ED₅₀ (µg/kg).
# mongrel dogs [3] = experiment: as above; settings: Canis lupus familiaris, iv, read-out: ED50, i.v. (amount required to increase the vertebral arterial blood flow by 50%)
SMILES,"systric pressure of median sacral artery, change at 1 hr (%) [1] [%]","systric pressure of median sacral artery, change at 2 hr (%) [1] [%]","systric pressure of median sacral artery, change at 4 hr (%) [1] [%]","systric pressure of median sacral artery, change at 6 hr (%) [1] [%]","systric pressure of median sacral artery, change at 24 hr (%) [1] [%]",Change (%) DBP (Diastolic blood pressure) (mongrel dogs [2]) [%],Change (%) FABF (Femoral arteial blood flow) (mongrel dogs [2]) [%],Change (%) VABF (Vertebral arterial blood flow) (mongrel dogs [2]) [%],ED50 (mongrel dogs [3]) [µg/kg]
"CC1=C(C(=O)OCCN(C)Cc2ccc(Cl)cc2Cl)C(c2cccc([N+](=O)[O-])c2)C(C(=O)OCC2CC2)=C(C)N1 (centres unmarked) [Example 1, 3-Cyclopropylmethyl 5-[2-[N-(2,4-dichlorobenzyl)-N-methylamino]-ethyl]1.4-dihydro-2,6-dimethyl-4-(3-nitrophenyl)-pyridine-3,5-dicarboxylate]",-33.3±6.57,-35.2±4.12,-34.0±2.42,-32.8±2.72,-13.0±5.94,-7 ± 1,23 ± 7,90 ± 17,1.1
"CC1=C(C(=O)OCCN2Cc3ccc(Cl)cc3C2)C(c2cccc([N+](=O)[O-])c2)C(C(=O)OCC2CC2)=C(C)N1 (centres unmarked) [Example 2, 3-[2-(5-Chloroisoindolin-2-yl)ethyl] 5-cyclopropymethyl 1.4-dihydro-2,6-dimethyl-4-(3-nitrophenyl)-pyridine-3,5-dicarboxylate]",-3.0±1.47,-9.0±2.82,-13.2±6.15,-21.4±3.67,-14.3±4.09,-7 ± 2,23 ± 8,40 ± 6,1.6
"COC(=O)C1=C(C)NC(C)=C(C(=O)OCCN(C)Cc2ccccc2)C1c1cccc([N+](=O)[O-])c1 (centres unmarked) [Nicardipine, 1,4-dihydro-2,6-dimethyl-4-(3-nitrophenyl)pyridine-3,5-dicarboxylic acid 3-2-(N-benzyl-N-methylamino)ethyl 5-methyl ester, reference compound]",-10.0±2.28,-5.7±1.61,-3.0±2.01,-1.0±1.50,-4.2±1.88,-10 ± 1,14 ± 5,32 ± 7,4.2
"COC(=O)C1=C(C)NC(C)=C(C(=O)OC)C1c1ccccc1[N+](=O)[O-] [Nifedipine, dimethyl ester of 1,4-dihydro-2,6-dimethyl-4-(2-nitrophenyl)pyridine-3,5-dicarboxylic acid, reference compound]",-19.3±4.41,-10.6±3.14,-4.3±2.70,-0.1±1.56,-1.1±1.06,,,,
